pEC50: −log10 of the molar value.

A short description of the assay: Inhibition of dUTPase in human HeLa S3 cells assessed as potentiation of 1 uM FdUrd-induced decrease in cell density incubated for 24 hrs by crystal violet assay.
As usually defined, the pEC50 is the negative decadic logarithm of the EC50, by convention in mol/L. `CC[C@@](O)(Cn1nncc1CCCCn1ccc(=O)[nH]c1=O)c1ccc(F)c(OCC2CC2)c1`: the pEC50 was 7.15.

`CC[C@@H](Cn1nncc1CCCCn1ccc(=O)[nH]c1=O)c1cccc(OCC2CC2)c1`: the pEC50 was 7.30.

Consider `O=c1ccn(CCCCc2cnnn2CCc2cccc(OCC3CC3)c2)c(=O)[nH]1`, for which the pEC50 was 6.59. The result for `O=c1ccn(CCCc2cnnn2CC(c2ccccc2)c2ccccc2)c(=O)[nH]1` reads 5.96.

These data come from BindingDB's records for doi:10.1021/jm3004174 (Taiho Pharmaceutical, 2012).
